Reference: patent US7264948B2, “Polypeptides for increasing mutant CFTR channel activity” (University of Pittsburgh, priority 2002, dated 2007)
Ends that are not written are not given here.

Tests used:
[1] = system: mouse lungs; assay: Intra-tracheal delivery of PTD5 streptavidin-Cy3 complexes into mouse lungs, two-photon microscopy; type: in vivo; conditions: 50 μl of 200 μM, three hours post-injection, FIG. 3
Experimental: To determine if the PTDs can facilitate protein uptake by mouse lungs, the PTD5 streptavidin-Cy3 complexes were delivered into mouse lungs intra-tracheally. The treated mice were sacrificed three hours post-delivery and tissue from the lungs was scanned by two-photon microscopy. 50 μl of 200 μM solution of the PTD-5-β-Cy3 was injected intra-tracheally into mouse lungs. Three hours post-injection, the mice were sacrificed, and the lungs were analyzed by two photon confocal microscopy for internalization. A control peptide (Con.P)-Cy3 was used as a control.

[2] = system: human airway cells; assay: Organelle distribution of PTD-5-avidin-β-gal, gradient ultracentrifugation and β-gal activity; type: cell-based; conditions: 37° C., purified organelles, FIG. 5
Experimental: To test the distribution of PTD5 facilitating uptake into human airway cells, the ability of PTD5 to deliver β-gal protein to a variety of cell organelles was examined by separation of organelles using gradient ultra-centrifugation. PTD-5-avidin-β-gal and a control peptide, (Con.P)-avidin-β-gal, were added to the media bathing the airway cell cultures and incubated at 37° C. Three hours post-addition of the complexes, the cells were washed extensively and collected for organelle isolation by gradient ultracentrifugation. The purified cell organelles were tested for β-gal activity using a Galacto-light kit (Tropix, Inc.).

[3] = system: primary human airway epithelial cells (HBE144), polarized canine kidney cells (MDCK) and other cell types; assay: PTD-5-facilitated delivery of avidin-β-gal complex, X-gal staining; type: cell-based; conditions: 150 nM PTD-5-avidin-β-gal complex, three hours, FIG. 1
Experimental: (§1) To determine whether the PTD5 polypeptide (RRQRRTSKLMKR) was able to facilitate uptake into different cell types including differentiated airway epithelial cells and Calu3 cells, the ability of PTD5 to deliver avidin-β-Gal and streptavidin Cy3 to human airway cells and Calu3 cells was examined.
PTD-5 is a positively charged transduction peptide, which was biotinylated so that it can be coupled to avidin marker complexes. 150 nM of the PTD-5-avidin-β-gal complex was added to the cell culture media of various cell lines (FIG. 1). Three hours post addition of the complex, the indicated cells were fixed and stained with X-gal.

[4] = system: Calu3 cells and human bronchial epithelial cells (KK); assay: PTD-5-facilitated delivery of streptavidin-Cy3, confocal microscopy; type: cell-based; conditions: three hours, 37° C., FIG. 2
Experimental: as §1
PTD-5 was also coupled to streptavidin-Cy 3, which was added to Calu3 cell and human bronchial epthelial cells (KK) cultures at 37° C. (FIG. 2). A peptide (Con.P)-strepavdin-Cy3 was used as a control. Three hours post addition of the PTD-5-streptavidin-Cy 3, the intracellular localization of the red (Cy 3) fluorescent signals were visualized by confocal microscopy. The nuclei were counterstained using cytox green.

[5] = molecular target: T1, interaction of Hdj2 and ΔF508 CFTR (Homo sapiens, UniProt P31689); assay: Co-immunoprecipitation of Hdj2 with CFTR in KK cell lysate treated with fusion protein; type: binding
T1 construct: endogenous in cells; host or cells: KK bronchial epithelial cell line (lysate)
Experimental: To test whether PTD-5 ΔF508NBD1-RD could inhibit interaction of Hdj2 and ΔF508 CFTR, KK cells, a bronchial epithelial cell line carrying the ΔF508 mutation, were lysed with a lysis buffer, the lysate was treated with PTD5-NBD1-ΔF-RD and equal amount lysates were used to perform immunoprecipitation (IP) using CFTR antibodies, M3A7 (1 μg) and L12B4 (1 μg) and protein […] beads. The precipitants were washed five times with lysis buffer. Hjd2 that co-precipitated with CFTR was fractionated by SDS-PAGE, transferred to PVDF membrane and detected by immunoblotting (IB).

[6] = system: ΔF508 CFTR; assay: Whole cell patch clamp of forskolin-stimulated currents; conditions: primary human airway (HBE) cells, four hours treatment, 5-10 μM forskolin, 37° C.
Experimental: To increase the specificity of the method, a whole cell patch clamp method can be utilized to verify the SPQ data using PTD-5 ΔF508 NBD1/RD. Briefly, cells at 50% confluence are treated with PTD fusion peptide or adenovirus carrying ΔF508 NBD1/RD for four hours and subjected to whole cell patch clamp by standard methods. Currents are recorded at −60 mV and current-voltage relations are obtained before and after the cells are stimulated with 5-10 μM forskolin; all procedures are performed at 37° C. The bath solution contained (in mM) 150 NaCl, 2 MgCl2, 1 EGTA, 5 HEPES and 0.5 CaCl2 (pH=7.3). The pipette solution contains (in mM) 150 NaCl, 2 MgCl2, 5 HEPES and 2 CaCl2 (pH=7.3). Data is amplified using an Axopatch 200A patch-clamp amplifier and recorded to disk by a Digidata A/D interface for later analysis with pCLAMP8. The data is low-pass filtered and digitized at 1 kHz.

## ARPLEHGSDKAT (control, Con P) [reference compound]
[1]
  Cy3 signal in lungs: weak signals
[2]
  delivery of avidin-β-gal complex to cell organelles (β-gal activity): did not localize to any of the organelles

## RRQRRTSKLMKR (also: biotinylated (position not given here)) [PTD-5, biotinylated for coupling to avidin marker complexes]
[1]
  Cy3 signal in lungs: significant Cy3 signal
[3]
  delivery of avidin-β-gal complex into cells (X-gal staining): able to deliver the avidin-β-gal complex
[2]
  delivery of avidin-β-gal complex to cell organelles (β-gal activity): able to deliver the avidin-β-gal complex to ER, Golgi, mitochondria, and nuclei
[4]
  delivery of streptavidin-Cy3 complex into cells (confocal microscopy): delivered the streptavidin-Cy3 complex

## PTD5-ΔF508 NBD1/RD fusion protein: inline fusion of PTD-5 with the ΔF508 CFTR NBD1-RD region, histidine tag, expressed in E. coli, nickel column purified
[5]; listed as PTD5 ΔF508NBD1-RD fusion protein
  interaction of Hdj2 with ΔF508 CFTR (co-immunoprecipitation): capable of inhibiting the interaction of Hdj2 with the ΔF508 CFTR protein
[5]; listed as PTD-5-ΔF508 NBD1-RD
  interaction of Hdj2 with ΔF508 CFTR (co-immunoprecipitation): disrupts ΔF508 CFTR interaction with chaperone Hdj2
[6]
  forskolin-stimulated whole cell currents: forskolin-stimulated currents typical of those associated with CFTR
